Laboratory results published in PubChem BioAssay AID248 (DTP/NCI, 2004).
Where “and” joins values, the source holds several entries; their conditions need not be identical. Equal entries are not always repeated. Inconclusive results and toxic doses are left out. Cut-off read from the data, not from the text of the source: active = T/C of 150% or more; inactive = T/C below 125%.

Test system: L1210 leukemia ip in BDF1 mice, survival T/C
Experiment: NCI In Vivo Anticancer Drug Screen. Data for tumor model L1210 Leukemia (intraperitoneal) in B6D2F1 (BDF1) mice
Details: endpoint: mean survival time, higher = longer survival
Summary of the method: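 Ratio derived from survival: compound-dosed mice over vehicle-dosed mice, all bearing a transplantable tumor.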

Measured: T/C

CN(Cc1cnc2nc(NCNC(=O)C3=C(O)[C@@]4(O)C(=O)C5=C(O)c6c(O)cccc6[C@@](C)(O)[C@H]5C[C@H]4[C@H](N(C)C)C3=O)nc(N)c2n1)c1ccc(C(=O)NC(CCC(=O)O)C(=O)O)cc1 (some centres undefined)
active: dose: 1.5 mg/kg/injection, schedule: Q01DX015 (ip), vehicle: saline 213 % of control | dose: 3.0 mg/kg/injection, schedule: Q01DX015 (ip), vehicle: saline 219 % of control | dose: 6.0 mg/kg/injection, schedule: Q01DX015 (ip), vehicle: saline 163 % of control
inactive: dose: 12.0 mg/kg/injection, schedule: Q01DX015 (ip), vehicle: saline 107 % of control | dose: 24.0 mg/kg/injection, schedule: Q01DX015 (ip), vehicle: saline 87 % of control

OCC(O)C(O)C(O)C(O)C(SCc1ccccc1)SCc1ccccc1 (centres undefined)
inactive: dose: 100.0 mg/kg/injection, schedule: Q04DX002 (ip), vehicle: Klucel (hydroxypropylcellulose) (HPC) 98 % of control | dose: 200.0 mg/kg/injection, schedule: Q04DX002 (ip), vehicle: Klucel (hydroxypropylcellulose) (HPC) 92 % of control | dose: 400.0 mg/kg/injection, schedule: Q04DX002 (ip), vehicle: Klucel (hydroxypropylcellulose) (HPC) 92 % of control

O=C(Nc1ccc(C2=NCCN2)cc1)Nc1cccc(NC(=O)Nc2ccc(C3=NCCN3)cc2)c1
active: dose: 7.5 mg/kg/injection, schedule: Q#A X Z (ip), vehicle: carboxymethylcellulose (CMC) 180 % of control | dose: 15.0 mg/kg/injection, schedule: Q01DX Z (ip), vehicle: carboxymethylcellulose (CMC) 189 % of control | dose: 15.0 mg/kg/injection, schedule: Q#A X Z (ip), vehicle: carboxymethylcellulose (CMC) 215 % of control | dose: 30.0 mg/kg/injection, schedule: Q01DX Z (ip), vehicle: carboxymethylcellulose (CMC) 206 % of control and 227 % of control and 315 % of control | dose: 30.0 mg/kg/injection, schedule: Q#A X Z (ip), vehicle: carboxymethylcellulose (CMC) 220 % of control | dose: 60.0 mg/kg/injection, schedule: Q01DX Z (ip), vehicle: carboxymethylcellulose (CMC) 216 % of control and 255 % of control and 337 % of control | dose: 60.0 mg/kg/injection, schedule: Q#A X Z (ip), vehicle: carboxymethylcellulose (CMC) 234 % of control | dose: 74.0 mg/kg/injection, schedule: Q01DX Z (ip), vehicle: carboxymethylcellulose (CMC) 280 % of control | dose: 90.0 mg/kg/injection, schedule: Q03DX Z (ip), vehicle: carboxymethylcellulose (CMC) 227 % of control | dose: 120.0 mg/kg/injection, schedule: Q01DX Z (ip), vehicle: carboxymethylcellulose (CMC) 225 % of control and 234 % of control and 331 % of control | dose: 120.0 mg/kg/injection, schedule: Q#A X Z (ip), vehicle: carboxymethylcellulose (CMC) 218 % of control | dose: 148.0 mg/kg/injection, schedule: Q01DX Z (ip), vehicle: carboxymethylcellulose (CMC) 271 % of control | dose: 180.0 mg/kg/injection, schedule: Q03DX Z (ip), vehicle: carboxymethylcellulose (CMC) 265 % of control | dose: 210.0 mg/kg/injection, schedule: Q07DX Z (ip), vehicle: carboxymethylcellulose (CMC) 194 % of control | dose: 222.0 mg/kg/injection, schedule: Q01DX Z (ip), vehicle: carboxymethylcellulose (CMC) 204 % of control | dose: 240.0 mg/kg/injection, schedule: Q01DX Z (ip), vehicle: carboxymethylcellulose (CMC) 223 % of control and 260 % of control and 309 % of control | dose: 240.0 mg/kg/injection, schedule: Q#A X Z (ip), vehicle: carboxymethylcellulose (CMC) 182 % of control | dose: 300.0 mg/kg/injection, schedule: Q01DX001 (ip), vehicle: carboxymethylcellulose (CMC) 172 % of control | dose: 333.0 mg/kg/injection, schedule: Q01DX Z (ip), vehicle: carboxymethylcellulose (CMC) 178 % of control | dose: 360.0 mg/kg/injection, schedule: Q03DX Z (ip), vehicle: carboxymethylcellulose (CMC) 253 % of control | dose: 420.0 mg/kg/injection, schedule: Q07DX Z (ip), vehicle: carboxymethylcellulose (CMC) 190 % of control | dose: 480.0 mg/kg/injection, schedule: Q01DX Z (ip), vehicle: carboxymethylcellulose (CMC) 177 % of control and 215 % of control | dose: 500.0 mg/kg/injection, schedule: Q01DX Z (ip), vehicle: carboxymethylcellulose (CMC) 156 % of control | dose: 720.0 mg/kg/injection, schedule: Q03DX Z (ip), vehicle: carboxymethylcellulose (CMC) 252 % of control | dose: 840.0 mg/kg/injection, schedule: Q07DX Z (ip), vehicle: carboxymethylcellulose (CMC) 227 % of control | dose: 1440.0 mg/kg/injection, schedule: Q03DX Z (ip), vehicle: carboxymethylcellulose (CMC) 231 % of control | dose: 1680.0 mg/kg/injection, schedule: Q07DX Z (ip), vehicle: carboxymethylcellulose (CMC) 239 % of control | dose: 3360.0 mg/kg/injection, schedule: Q07DX Z (ip), vehicle: carboxymethylcellulose (CMC) 300 % of control
inactive: dose: 7.5 mg/kg/injection, schedule: Q01DX Z (ip), vehicle: carboxymethylcellulose (CMC) 119 % of control | dose: 22.5 mg/kg/injection, schedule: Q03DX Z (ip), vehicle: carboxymethylcellulose (CMC) 122 % of control | dose: 30.0 mg/kg/injection, schedule: Q01DX Z (sc), vehicle: carboxymethylcellulose (CMC) 101 % of control and 107 % of control | dose: 60.0 mg/kg/injection, schedule: Q01DX004 (im), vehicle: olive oil, sesame oil, peanut oil 92 % of control | dose: 60.0 mg/kg/injection, schedule: Q01DX Z (sc), vehicle: carboxymethylcellulose (CMC) 97 % of control and 102 % of control | dose: 62.5 mg/kg/injection, schedule: Q## X009 (oral), vehicle: saline 98 % of control | dose: 120.0 mg/kg/injection, schedule: Q01DX004 (im), vehicle: olive oil, sesame oil, peanut oil 102 % of control | dose: 120.0 mg/kg/injection, schedule: Q01DX Z (oral), vehicle: carboxymethylcellulose (CMC) 98 % of control | dose: 120.0 mg/kg/injection, schedule: Q01DX Z (sc), vehicle: carboxymethylcellulose (CMC) 101 % of control and 104 % of control | dose: 125.0 mg/kg/injection, schedule: Q## X010 (oral), vehicle: saline 95 % of control | dose: 240.0 mg/kg/injection, schedule: Q01DX004 (im), vehicle: olive oil, sesame oil, peanut oil 101 % of control | dose: 240.0 mg/kg/injection, schedule: Q01DX Z (oral), vehicle: carboxymethylcellulose (CMC) 97 % of control | dose: 240.0 mg/kg/injection, schedule: Q01DX Z (sc), vehicle: carboxymethylcellulose (CMC) 95 % of control and 105 % of control | dose: 250.0 mg/kg/injection, schedule: Q## X010 (oral), vehicle: saline 102 % of control | dose: 480.0 mg/kg/injection, schedule: Q01DX004 (im), vehicle: olive oil, sesame oil, peanut oil 106 % of control | dose: 480.0 mg/kg/injection, schedule: Q01DX Z (oral), vehicle: carboxymethylcellulose (CMC) 97 % of control | dose: 480.0 mg/kg/injection, schedule: Q01DX Z (sc), vehicle: carboxymethylcellulose (CMC) 105 % of control and 108 % of control | dose: 500.0 mg/kg/injection, schedule: Q## X009 (oral), vehicle: saline 98 % of control | dose: 960.0 mg/kg/injection, schedule: Q01DX Z (oral), vehicle: carboxymethylcellulose (CMC) 97 % of control | dose: 1920.0 mg/kg/injection, schedule: Q01DX Z (oral), vehicle: carboxymethylcellulose (CMC) 98 % of control

CC1(C)SC2C(NC(=O)COc3ccccc3)C(=O)N2C1C(=O)O (centres undefined) (tested in a mixture with another compound)
inactive: dose: 100.0 mg/kg/injection, schedule: Q04DX003 (ip), vehicle: saline with Tween-80 101 % of control | dose: 200.0 mg/kg/injection, schedule: Q04DX003 (ip), vehicle: saline with Tween-80 103 % of control | dose: 400.0 mg/kg/injection, schedule: Q04DX003 (ip), vehicle: saline with Tween-80 97 % of control

CC(C)(CO)C(O)C(=O)NCCC(=O)c1ccccc1 (centres undefined)
inactive: dose: 100.0 mg/kg/injection, schedule: Q01DX001 (ip), vehicle: saline 103 % of control | dose: 200.0 mg/kg/injection, schedule: Q01DX001 (ip), vehicle: saline 92 % of control | dose: 400.0 mg/kg/injection, schedule: Q01DX001 (ip), vehicle: saline 103 % of control

CNC(=O)Oc1cccc(C)c1
inactive: dose: 25.0 mg/kg/injection, schedule: Q01DX009 (ip), vehicle: saline with Tween-80 97 % of control | dose: 50.0 mg/kg/injection, schedule: Q01DX009 (ip), vehicle: saline with Tween-80 94 % of control

O=C(NCC(O)CI)c1ccc([N+](=O)[O-])cc1 (centres undefined)
inactive: dose: 100.0 mg/kg/injection, schedule: Q01DX009 (ip), vehicle: saline with Tween-80 104 % of control | dose: 200.0 mg/kg/injection, schedule: Q01DX009 (ip), vehicle: saline with Tween-80 102 % of control | dose: 400.0 mg/kg/injection, schedule: Q01DX009 (ip), vehicle: saline with Tween-80 89 % of control

O=S(=O)(O)C1(O)CCCCC1
inactive: dose: 50.0 mg/kg/injection, schedule: Q01DX009 (ip), vehicle: saline 99 % of control | dose: 100.0 mg/kg/injection, schedule: Q01DX009 (ip), vehicle: saline 93 % of control | dose: 100.0 mg/kg/injection, schedule: Q04DX003 (ip), vehicle: saline 102 % of control | dose: 200.0 mg/kg/injection, schedule: Q01DX009 (ip), vehicle: saline 103 % of control | dose: 200.0 mg/kg/injection, schedule: Q04DX003 (ip), vehicle: saline 100 % of control | dose: 400.0 mg/kg/injection, schedule: Q01DX009 (ip), vehicle: saline 113 % of control | dose: 400.0 mg/kg/injection, schedule: Q04DX003 (ip), vehicle: saline 96 % of control
